# Reference: paper PMC3668096 (FEBS letters, 2012)
# pIC50: −log10 of the molar value.
# How the values were obtained:
# B. subtilis BshA = B. subtilis BshA (Bacillus subtilis, UniProt P42982); test: HPLC detection of UDP release at […] nm; format: biochemical
# MshA = molecular target: T1, MshA (Mycolicibacterium smegmatis, UniProt A0QQZ8); test: MshA glycosyltransferase assay; format: biochemical; conditions: 1 mM UDP-GlcNAc, 1 mM 1-L-inositol-1-phosphate
# T1 sequence (A0QQZ8 1-434): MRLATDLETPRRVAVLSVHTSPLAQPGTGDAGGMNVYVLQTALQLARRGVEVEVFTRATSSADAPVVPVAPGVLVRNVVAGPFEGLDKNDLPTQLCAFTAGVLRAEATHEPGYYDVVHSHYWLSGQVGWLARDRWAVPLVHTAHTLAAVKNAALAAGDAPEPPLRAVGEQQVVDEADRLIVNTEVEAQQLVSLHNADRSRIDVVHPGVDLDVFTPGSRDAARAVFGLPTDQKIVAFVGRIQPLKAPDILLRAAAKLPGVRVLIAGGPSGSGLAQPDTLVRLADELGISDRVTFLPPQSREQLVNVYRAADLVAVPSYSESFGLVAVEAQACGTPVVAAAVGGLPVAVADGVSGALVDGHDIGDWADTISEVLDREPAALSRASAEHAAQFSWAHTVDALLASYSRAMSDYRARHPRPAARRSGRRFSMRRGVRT
# B. subtilis BshA, sequence (P42982 whole entry): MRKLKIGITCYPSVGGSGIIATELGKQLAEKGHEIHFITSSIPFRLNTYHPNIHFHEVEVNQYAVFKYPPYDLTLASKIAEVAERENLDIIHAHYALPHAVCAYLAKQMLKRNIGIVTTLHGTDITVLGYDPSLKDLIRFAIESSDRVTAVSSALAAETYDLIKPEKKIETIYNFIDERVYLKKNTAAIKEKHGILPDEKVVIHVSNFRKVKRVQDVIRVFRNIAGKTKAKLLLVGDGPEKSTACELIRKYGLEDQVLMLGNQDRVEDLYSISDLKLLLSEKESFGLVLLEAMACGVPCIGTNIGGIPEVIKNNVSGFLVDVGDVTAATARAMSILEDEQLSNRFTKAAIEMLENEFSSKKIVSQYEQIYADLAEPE
compound,measurement,setting,value
"N[C@@H](CS)C(=O)N[C@H]1[C@@H](O[C@@H](CC(=O)O)C(=O)O)O[C@H](CO)[C@@H](O)[C@@H]1O [BSH, bacillithiol]",pIC50,B. subtilis BshA,3.15
"CC(=O)N[C@@H](CS)C(=O)NC1[C@@H](O[C@@H]2[C@H](O)[C@H](O)[C@@H](O)[C@H](O)[C@H]2O)O[C@H](CO)[C@@H](O)[C@@H]1O (stereo partly drawn) [MSH, mycothiol]",pIC50,"MshA; preincubated with MSH, feedback inhibition",2.44
"CC(=O)N[C@H]1[C@@H](OP(=O)(O)OP(=O)(O)OC[C@H](C=O)OC(C=O)n2ccc(=O)[nH]c2=O)O[C@H](CO)[C@@H](O)[C@@H]1O (stereo partly drawn) [O-UDP-GlcNAc, 2’,3’-dialdehydo-UDP-N-acetylglucosamine]",pIC50,MshA; preincubated with inhibitor,3.70
